Data from patent US12661333B2, “Composition for use in treatment of a biofilm in a subject” (TECHNOLOGICAL UNIVERSITY DUBLIN, priority 2020, dated 2026).

Assays:
[1] = tested on: Enterococcus faecalis ATCC 7080; assay: Biofilm formation in vitro, crystal violet assay; format: cell-based; details: for reduction of biofilm formation versus control: 24 hours, 37° C., FIG. 1B
Procedure: (§1) FIG. 1: The effect of varying concentrations of DHA on the ability of Klebsiella pneumoniae NCIMB 418 (A) and Enterococcus faecalis ATCC 7080 (B) to form a biofilm in vitro. (10^6 CFU/well was incubated with various concentrations of DHA in a 96 well plate for 24 hours statically at 37° C. Biofilm formation was assessed using the crystal violet assay. Data represents the mean±SD for six independent experiments, carried out in triplicate. One-way ANOVA was performed for statistical analysis. *****P<0.001 compared to both the control (no DHA) and vehicle control (1% DMSO).
The effect of varying concentrations of DHA on the ability of Klebsiella pneumoniae NCIMB 418 and Enterococcus faecalis ATCC 7080 to form a biofilm in vitro was investigated. 10^6 CFU/well was incubated with various concentrations of DHA in a 96 well plate for 24 hours statically at 37° C. Biofilm formation was assessed using the crystal violet assay. Data represents the mean±SD for six independent experiments, carried out in triplicate. The assay involves seeding cells at 10^^6 CFU/ml in media with DHA. Cells were then left for 24 hrs to form biofilms before washing and staining with Crystal Violet. Crystal violet adheres to cells stuck to the sides of the tube/well. The samples is washed again to remove any unbound dye before dissolving the stain in acetic acid and measuring the reading in a spectrophotometer. The colour intensity relates to the level of biofilm present. The more colour the more bacteria in the biofilm. Merritt, J. H., Kadouri, D. E. and O'Toole, G. A. (2005) ‘Growing and Analyzing Static Biofilms’, Current Protocols in Microbiology, Chapter 1(Jul), p. Unit 1B.1.

[2] = tested on: human gingival fibroblasts (HGFs); design: dose or concentration left out as unconfirmed; details: exposed for 24 and 48 hours; cited from earlier work
[3] = tested on: Klebsiella pneumoniae NCIMB 418; assay: Biofilm formation in vitro, crystal violet assay; format: cell-based; details: for reduction of biofilm formation versus control: 24 hours, 37° C., FIG. 1A
Procedure: as §1
FIG. 2: Comparing DNA (16 μM) and Erythromycin (4 μg/ml) individually and adjunct for antibiofilm effects against Klebsiella pneumoniae NCIMB 481 in vitro. 10^6 CFU/well was incubated with each well of a 96 well plate for 24 hours statically at 37° C. Biofilm formation was assessed using the crystal violet assay. Data represents the mean±SD for four independent experiments, carried out in triplicate. One-way ANOVA was performed for statistical analysis. *****P<0.001 compared to both the control (no DHA or Erythromycin), vehicle control (1% DMSO), DHA (16 μM) and Erythromycin (4 μg·mL).
The effect of varying concentrations of DHA on the ability of Klebsiella pneumoniae NCIMB 418 and Enterococcus faecalis ATCC 7080 to form a biofilm in vitro was investigated. 10^6 CFU/well was incubated with various concentrations of DHA in a 96 well plate for 24 hours statically at 37° C. Biofilm formation was assessed using the crystal violet assay. Data represents the mean±SD for six independent experiments, carried out in triplicate. The assay involves seeding cells at 10^^6 CFU/ml in media with DHA. […] The samples is washed again to remove any unbound dye before dissolving the stain in acetic acid and measuring the reading in a spectrophotometer. […]
The effects of DHA (16 μM) and Erythromycin (4 μg/ml) were compared individually and adjunct for antibiofilm effects against Klebsiella pneumoniae NCIMB 481 in vitro. […] Biofilm formation was assessed using the crystal violet assay. […]

[4] = tested on: human periodontal ligament cells (hPDLCs); design: dose or concentration left out as unconfirmed; details: exposed for 24 and 48 hours; cited from earlier work
[5] = summary of FIG. 1, concentration not stated

For CC/C=C\C/C=C\C/C=C\C/C=C\C/C=C\C/C=C\CCC(=O)O [DHA, docosahexaenoic acid], the “reduction of biofilm formation versus control” value (“reduction” below) ([1]; DHA 6.25 μM) was roughly 20%, the “reduction” value ([1]; DHA 100 μM) was roughly 65% and the reducing biofilm formation [1, 5] was “approximately 60%”. For the same compound, the cytotoxic effects [2] was “cytotoxic effects”, the “reduction” value ([3]; DHA 6.25 μM) was roughly 40% and the “reduction” value ([3]; DHA 100 μM) was roughly 65%. The reducing biofilm formation [3, 5] was “approximately 60%” and the cytotoxic effects [4] was “cytotoxic effects”.
